Measurements: publication PMC4628894 (Bioorganic & medicinal chemistry letters, 2015)
Like-named read-outs stand apart in the source and are kept apart here.

Experiments:
CRF1 receptor = conditions: read-out: Ki for the CRF1 receptor, previously reported, cited from earlier work
rat brain CRF1 receptor = conditions: read-out: IC50, rat brain CRF1 receptor; previous report; cited from earlier work
human CRF1 receptor = molecular target: T1, human CRF1 receptor (Homo sapiens, UniProt P34998); assay type: binding; conditions: for fold gain in binding affinity at CRF1 relative to 17: compared to compound 17; for fold increase in binding affinity at CRF1 relative to 21: compared to compound 21; for fold loss of binding affinity at CRF1 relative to 2: compared to compound 2
T1 sequence (P34998 24-415): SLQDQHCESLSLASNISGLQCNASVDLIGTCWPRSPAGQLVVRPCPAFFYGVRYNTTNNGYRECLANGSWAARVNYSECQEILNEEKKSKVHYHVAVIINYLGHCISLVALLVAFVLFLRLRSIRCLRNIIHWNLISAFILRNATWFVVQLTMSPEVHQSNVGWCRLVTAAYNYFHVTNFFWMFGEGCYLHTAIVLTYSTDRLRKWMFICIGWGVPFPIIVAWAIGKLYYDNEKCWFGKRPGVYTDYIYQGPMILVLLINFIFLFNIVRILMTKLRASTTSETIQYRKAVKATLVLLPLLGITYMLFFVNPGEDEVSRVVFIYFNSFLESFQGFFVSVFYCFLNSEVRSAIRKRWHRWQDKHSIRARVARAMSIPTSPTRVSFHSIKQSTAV

Row | SMILES | IC50 (rat brain CRF1 receptor) | fold increase in binding affinity at CRF1 relative to 21 (human CRF1 receptor) | other results
1 | CCCN(CCC)c1cc(C)nc2c(-c3cnc(N(C)C)cc3C)c(C)nn12 [Compound R121919] |  |  | Ki (CRF1 receptor; ref 26): 3500 pM; Ki (CRF1 receptor; ref 27): 3000 ± 160 pM
2 | CCCCN(CC)c1cc(C)nc2c1NC(=O)CN2c1ccc(C(C)C)cc1Br [Compound 2] | 700 pM |  | 
3 | Cc1cc(N(C)C)c2c(n1)N(c1ccc(C(C)C)cc1Br)CC(=O)N2CCF [Compound 21] |  |  | fold gain in binding affinity at CRF1 relative to 17 (human CRF1 receptor): ~ 3 fold
4 | CCCCN(CC)c1cc(C)nc2c1NC(=O)CN2c1ccc(OC)cc1C [Compound 9] | 920 pM |  | 
5 | CCCCN(CC)c1cc(C)nc2c1NC(=O)CN2c1ccc(Cl)cc1Cl [Compound 6] | 490 pM |  | 
6 | Cc1cc(N(C)C)c2c(n1)N(c1ccc(C(C)C)cc1Br)CC(=O)N2C/C=C/CF [Compound 23] |  | ~ 4 fold | 
7 | Cc1cc(N(C)C)c2c(n1)N(c1ccc(C(C)C)cc1Br)CC(=O)N2 [Compound 17] |  |  | fold loss of binding affinity at CRF1 relative to 2 (human CRF1 receptor): ~ 75 fold
8 | CCN(CC)c1cc(C)nc2c1N(CCF)C(=O)CN2c1ccc(C(C)C)cc1Br [Compound 22] |  | ~ 8 fold | 
9 | Cc1cc(N(C)C)c2c(n1)N(c1ccc(C(C)C)cc1Br)CC(=O)N2CCCCF [Compound 24] |  | ~ 2.7 fold | 
10 | CCN(C)c1cc(C)nc2c1NC(=O)CN2c1ccc(C(C)C)cc1Br [Compound 18] |  |  | fold loss of binding affinity at CRF1 relative to 2 (human CRF1 receptor): ~ 6.8 fold; fold gain in binding affinity at CRF1 relative to 17 (human CRF1 receptor): ~ 11 fold
